Assay results published in US8455530B2, “Crystalline form of an alkoxyimidazol-1-ylmethyl biphenyl carboxylic acid” (Theravance, Inc., priority 2008, dated 2013).
“Also recorded” adds a separate entry of the source. Where a name gives a salt, the structure may show the parent alone.

Key:
[1] = Dynamic moisture sorption (DMS) assessment; assay type: physicochemical
Method: A dynamic moisture sorption (DMS) assessment (also known as a moisture sorption-desorption profile) was performed for a sample of the crystalline form of Example 2 using a VTI atmospheric microbalance, SGA-100 system (VTI Corp., Hialeah, Fla. 33016). A sample size of approximately 4.27 mg was used and the humidity was set at the ambient value at the start of the analysis. The DMS analysis consisted of a scan rate of 5% RH/step over the full humidity range of 2% relative humidity (RH) to 90% RH. The DMS run was performed isothermally at 25° C.

[2] = Differential scanning calorimetry (thermal stability); assay type: physicochemical; conditions: 10° C./min from 22° C. to 250° C.; listed as crystalline compound of the invention
Method: Differential scanning calorimetry (DSC) was performed using a TA Instruments Model Q-100 module with a Thermal Analyst controller. Data were collected and analyzed using TA Instruments Thermal Solutions software. A 1.64 mg sample of the crystalline form of Example 2 was accurately weighed into a covered aluminum pan. After a 5 minute isothermal equilibration period at 22° C., the sample was heated using a linear heating ramp of 10° C./min from 22° C. to 250° C.

[3] = Solid state stability assessment (storage, HPLC purity); assay type: physicochemical; conditions: for change in chemical purity after 28 days of storage at 40° C.: HPLC
Method: Samples of the crystalline freebase prepared as in Example 7, about 100 mg each, were stored in multiple vials at 5° C. (closed container), 25° C. (closed container), and at 40° C. (closed container). At specific intervals, the entire contents of a representative vial was analyzed by the following HPLC method:
Column: Agilent Zorbox SB-C18, 4.6×250 mm, 5 μm (Part No. 880975-902). Mobile Phase A: 80% H2O, 20% MeCN, 0.01% TFA. Mobile Phase B: 80% MeCN, 20% H2O, 0.01% TFA. Flow rate: 1 mL/min. Injection Volume: 20 μL. Detector: 250 nm.
The purity of the samples was determined by HPLC area percentage (% AUC).

[4] = Micronization with a jet mill, particle size distribution; assay type: physicochemical
Excerpt: A sample of the crystalline freebase prepared as in Example 7 was micronized with a jet mill to give a free-flowing white powder. No issues were encountered during the micronization process.

[5] = Solid state stability assessment (storage, HPLC purity); assay type: physicochemical; conditions: for purity at time 0: HPLC area percentage
[6] = Thermal stability (heating at 60° C.); assay type: physicochemical
Method: A sample of the crystalline form prepared as in Example 6 was heated at 60° C. for 5 days. The sample lost only 2% of its purity, thus the crystalline compound of the invention has excellent thermal stability.

human AT1 receptor = biological target: T1, human AT1 receptor (Homo sapiens, UniProt P30556); test: AT1 radioligand binding assay ([Eu]AngII displacement); conditions: [Eu]AngII at 2 nM, membranes of CHO-K1 cells expressing human AT1; read-out: pKi at the AT1 receptor (converted)
T1 construct: expressed in transfected cells; membrane preparation
T1 sequence (P30556 1-359): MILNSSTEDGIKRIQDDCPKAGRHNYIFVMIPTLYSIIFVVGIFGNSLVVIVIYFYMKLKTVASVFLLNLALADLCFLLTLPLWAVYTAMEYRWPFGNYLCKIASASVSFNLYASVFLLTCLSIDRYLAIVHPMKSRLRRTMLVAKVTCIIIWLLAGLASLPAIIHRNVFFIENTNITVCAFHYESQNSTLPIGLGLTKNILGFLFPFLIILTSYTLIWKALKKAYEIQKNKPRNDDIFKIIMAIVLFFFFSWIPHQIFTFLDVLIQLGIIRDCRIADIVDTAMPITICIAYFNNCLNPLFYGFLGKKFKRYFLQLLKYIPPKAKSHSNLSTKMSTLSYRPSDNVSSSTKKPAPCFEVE
Method: These in vitro assays were used to assess the ability of test compounds to bind to the AT1 and the AT2 receptors.
Membrane Preparation From Cells Expressing Human AT1 or AT2 Receptors
Chinese hamster ovary (CHO-K1) derived cell lines stably expressing the cloned human AT1 or AT2 receptors, respectively, were grown in HAM's-F12 medium supplemented with 10% fetal bovine serum, 10 μg/ml penicillin/streptomycin, and 500 μg/ml geneticin in a 5% CO2 humidified incubator at 37° C. AT2 receptor expressing cells were grown in the additional presence of 100 nM PD123,319 (AT2 antagonist). When cultures reached 80-95% confluence, the cells were washed thoroughly in PBS and lifted with 5 mM EDTA. Cells were pelleted by centrifugation and snap frozen in MeOH-dry ice and stored at −80° C. until further use.
For membrane preparation, cell pellets were resuspended in lysis buffer (25 mM Tris/HCl pH 7.5 at 4° C., 1 mM EDTA, and one tablet of Complete Protease Inhibitor Cocktail Tablets with 2 mM EDTA per 50 mL buffer (Roche cat.#1697498, Roche Molecular Biochemicals, Indianapolis, Ind.)) and homogenized using a tight-fitting Dounce glass homogenizer (10 strokes) on ice. The homogenate was centrifuged at 1000×g, the supernatant was collected and centrifuged at 20,000×g. […] Protein concentration of the membrane suspension was determined by the method described in Bradford (1976) Anal Biochem. 72:248-54. […]

[7] = closed container, listed as crystalline freebase
[8] = all conditions: 5° C., 25° C. and 40° C., closed container
[9] = closed container, listed as amorphous freebase

## CCOc1nc(CC)c(CNC(=O)[C@@H](S)CC(C)C)n1Cc1ccc(-c2ccccc2C(=O)O)cc1F [Example 2, 4′-{2-Ethoxy-4-ethyl-5-[((S)-2-mercapto-4-methylpentanoylamino)methyl]imidazol-1-ylmethyl}-3′-fluorobiphenyl-2-carboxylic Acid]
[1]; unmicronized
  weight gain in the humidity range of 40-75% RH: less than 1%
[1]; up to 75% RH, 25° C.
  weight gain when exposed to up to 75% relative humidity: less than 1%
[2]
  thermal decomposition (DSC thermograph): no significant thermal decomposition below about 150 °C

## CCOc1nc(CC)c(CNC(=O)[C@@H](S)CC(C)C)n1Cc1ccc(-c2ccccc2C(=O)O)cc1F [Example 7, 4′-{2-Ethoxy-4-ethyl-5-[((S)-2-mercapto-4-methylpentanoylamino)methyl]imidazol-1-ylmethyl}-3′-fluorobiphenyl-2-carboxylic Acid]
[1]; micronized material
  weight gain in the humidity range of 40-75% RH: 0.7%
[3]; [7]
  purity after 14 days at 40° C.: 98.3 % AUC
[3]; 28 days at 40° C., listed as crystalline freebase
  change in chemical purity after 28 days of storage at 40° C.: no detectable change in chemical purity; also recorded: minimal chemical degradation
[3]; [8]
  change in chemical purity after 28 days of storage: no detectable change in chemical purity
[4]; Post-Micronization
  particle size D (v, 0.1): 0.79 μm
  particle size D (v, 0.5): 2.59 μm
  particle size D (v, 0.9): 7.07 μm
[4]; Pre-Micronization
  particle size D (v, 0.1): 1.73 μm
  particle size D (v, 0.5): 11.32 μm
  particle size D (v, 0.9): 50.73 μm
[5]; [7]
  purity after 7 days at 40° C.: 98.4 % AUC
[5]; 28 days at 40° C., closed container, listed as crystalline freebase
  purity after 28 days at 40° C.: 98.4 % AUC
[5]; listed as crystalline freebase
  purity at time 0: 98.5 % AUC
[5]; [8]
  change in the appearance of the material after 28 days of storage: no observable change in the appearance

## CCOc1nc(CC)c(CNC(=O)[C@@H](S)CC(C)C)n1Cc1ccc(-c2ccccc2C(=O)O)cc1F [Example 6, 4′-{2-Ethoxy-4-ethyl-5-[((S)-2-mercapto-4-methylpentanoylamino)methyl]imidazol-1-ylmethyl}-3′-fluorobiphenyl-2-carboxylic Acid]
[6]; heated at 60° C. for 5 days
  loss of purity: 2%

## CCOc1nc(CC)c(CNC(=O)[C@@H](S)CC(C)C)n1Cc1ccc(-c2ccccc2C(=O)O)cc1F [Example 1, 4′-{2-Ethoxy-4-ethyl-5-[((S)-2-mercapto-4-methylpentanoylamino)methyl]imidazol-1-ylmethyl}-3′-fluorobiphenyl-2-carboxylic Acid]
Human AT1 receptor
  Ki: < 100 nM
[6]; heated at 60° C. for 1 day
  loss of purity: about 50%
[3]; [9]
  purity after 14 days at 40° C.: 82.4 % AUC
[3]; 28 days at 40° C., listed as amorphous freebase
  change in chemical purity after 28 days of storage at 40° C.: decline in purity
[5]; [9]
  purity after 7 days at 40° C.: 86.8 % AUC
[5]; listed as amorphous freebase
  purity at time 0: 97.5 % AUC

## CCOc1nc(CC)c(CNC(=O)[C@@H](S)CC(C)C)n1Cc1ccc(-c2ccccc2C(=O)O)cc1F [amorphous TFA salt, 4′-{2-ethoxy-4-ethyl-5-[((S)-2-mercapto-4-methylpentanoyl-amino)methyl]imidazol-1-ylmethyl}-3′-fluorobiphenyl-2-carboxylic acid]
[3]; closed container
  purity after 14 days at 40° C.: 62.2 % AUC
[3]; 28 days at 40° C.
  change in chemical purity after 28 days of storage at 40° C.: decline in purity
[3]; 28 days at 40° C., closed container
  purity after 28 days at 40° C.: 47.1 % AUC
[3]; HPLC area percentage, time 0
  purity at time 0: 97.7 % AUC
[5]; closed container
  purity after 7 days at 40° C.: 73.5 % AUC
